Results published in patent publication US11572590B2, “Methods for evaluating tumor cell spheroids using 3D microfluidic cell culture device” (Dana-Farber Cancer Institute, Inc., priority 2017, dated 2023).
Read-outs that look alike come from different tables or passages of the source.

Key:
Experiment in all cases: SelectScreen Kinase Profiling, single point inhibition and IC50 for off-target kinases
Type in all cases: biochemical
off-target kinases [1] = target: T1, off-target kinases (Homo sapiens, UniProt Q16832); conditions: DDR2, LanthaScreen Binding
T1 sequence (Q16832 22-855): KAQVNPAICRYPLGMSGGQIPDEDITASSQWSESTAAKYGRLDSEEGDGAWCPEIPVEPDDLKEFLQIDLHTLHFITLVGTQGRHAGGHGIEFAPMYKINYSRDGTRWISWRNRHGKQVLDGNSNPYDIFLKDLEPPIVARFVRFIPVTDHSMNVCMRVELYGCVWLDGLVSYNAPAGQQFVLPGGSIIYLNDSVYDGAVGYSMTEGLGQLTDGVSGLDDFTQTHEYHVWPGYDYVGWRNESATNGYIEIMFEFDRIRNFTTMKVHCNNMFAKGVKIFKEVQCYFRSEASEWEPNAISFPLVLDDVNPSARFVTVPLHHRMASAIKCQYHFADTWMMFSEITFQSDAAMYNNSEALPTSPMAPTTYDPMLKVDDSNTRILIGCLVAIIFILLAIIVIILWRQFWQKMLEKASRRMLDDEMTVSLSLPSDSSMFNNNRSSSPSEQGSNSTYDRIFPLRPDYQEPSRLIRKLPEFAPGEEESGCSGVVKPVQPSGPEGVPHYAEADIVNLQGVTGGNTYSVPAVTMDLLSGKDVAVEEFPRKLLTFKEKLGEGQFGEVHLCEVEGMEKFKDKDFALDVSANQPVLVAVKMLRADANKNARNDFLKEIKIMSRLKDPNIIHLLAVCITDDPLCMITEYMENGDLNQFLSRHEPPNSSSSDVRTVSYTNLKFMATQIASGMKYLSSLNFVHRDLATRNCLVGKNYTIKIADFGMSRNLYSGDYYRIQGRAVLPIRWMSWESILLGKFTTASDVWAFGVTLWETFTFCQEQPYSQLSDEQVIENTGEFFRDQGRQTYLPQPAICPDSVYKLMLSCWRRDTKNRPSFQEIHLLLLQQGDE

off-target kinases [2] = target: off-target kinases (Homo sapiens, UniProt P51812); conditions: RPS6KA3 (RSK2), ZLYTE, ATP Km app
Chain of off-target kinases (Homo sapiens, UniProt P51812) (P51812 whole entry): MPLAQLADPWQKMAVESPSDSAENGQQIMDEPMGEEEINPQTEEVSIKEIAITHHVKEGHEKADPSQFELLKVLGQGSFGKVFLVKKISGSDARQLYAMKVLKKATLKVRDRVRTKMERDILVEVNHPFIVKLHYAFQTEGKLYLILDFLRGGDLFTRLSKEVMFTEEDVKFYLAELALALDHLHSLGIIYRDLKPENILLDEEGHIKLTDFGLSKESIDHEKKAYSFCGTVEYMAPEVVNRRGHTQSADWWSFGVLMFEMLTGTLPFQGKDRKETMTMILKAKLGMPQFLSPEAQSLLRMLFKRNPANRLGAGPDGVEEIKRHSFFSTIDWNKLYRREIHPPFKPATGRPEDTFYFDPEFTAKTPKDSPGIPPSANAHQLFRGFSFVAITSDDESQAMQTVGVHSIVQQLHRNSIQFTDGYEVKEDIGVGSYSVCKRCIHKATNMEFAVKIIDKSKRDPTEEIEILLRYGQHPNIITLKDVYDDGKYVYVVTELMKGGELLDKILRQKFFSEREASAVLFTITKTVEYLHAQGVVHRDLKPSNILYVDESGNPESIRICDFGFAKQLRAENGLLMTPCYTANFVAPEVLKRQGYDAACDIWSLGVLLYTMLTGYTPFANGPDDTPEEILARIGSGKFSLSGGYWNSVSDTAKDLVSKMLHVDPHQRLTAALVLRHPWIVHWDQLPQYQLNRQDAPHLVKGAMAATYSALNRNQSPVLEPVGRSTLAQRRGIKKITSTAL

off-target kinases [3] = target: T2, off-target kinases (Homo sapiens, UniProt O00444); conditions: PLK4, LanthaScreen Binding
T2 sequence (O00444 1-970): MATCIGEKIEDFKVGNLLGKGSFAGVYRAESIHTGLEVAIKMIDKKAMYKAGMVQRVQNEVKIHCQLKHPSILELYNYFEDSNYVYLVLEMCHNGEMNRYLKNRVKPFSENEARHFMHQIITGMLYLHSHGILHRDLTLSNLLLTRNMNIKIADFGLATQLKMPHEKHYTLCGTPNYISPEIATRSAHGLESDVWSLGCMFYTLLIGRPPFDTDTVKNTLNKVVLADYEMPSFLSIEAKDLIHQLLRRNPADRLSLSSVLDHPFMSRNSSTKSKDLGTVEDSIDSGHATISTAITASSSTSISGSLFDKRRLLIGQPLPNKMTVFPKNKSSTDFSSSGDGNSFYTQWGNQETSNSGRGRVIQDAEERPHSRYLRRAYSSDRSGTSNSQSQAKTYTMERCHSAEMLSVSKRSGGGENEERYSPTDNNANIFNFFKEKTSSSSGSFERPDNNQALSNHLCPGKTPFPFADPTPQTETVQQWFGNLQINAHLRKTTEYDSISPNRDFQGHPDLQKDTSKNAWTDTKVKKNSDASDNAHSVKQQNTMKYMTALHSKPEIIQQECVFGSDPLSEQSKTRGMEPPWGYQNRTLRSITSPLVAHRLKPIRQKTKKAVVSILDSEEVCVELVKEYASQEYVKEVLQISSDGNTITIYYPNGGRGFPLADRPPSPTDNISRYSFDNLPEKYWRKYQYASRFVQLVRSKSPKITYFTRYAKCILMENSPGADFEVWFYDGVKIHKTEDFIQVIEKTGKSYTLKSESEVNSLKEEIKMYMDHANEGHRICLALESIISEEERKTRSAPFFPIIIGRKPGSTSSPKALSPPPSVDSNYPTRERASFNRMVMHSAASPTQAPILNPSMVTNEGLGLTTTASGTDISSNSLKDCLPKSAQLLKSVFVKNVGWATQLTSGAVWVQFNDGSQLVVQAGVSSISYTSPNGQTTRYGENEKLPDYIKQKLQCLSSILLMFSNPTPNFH

N#Cc1cc(-c2ncnc(Nc3ccc(N4CCN(C5COC5)CC4)cc3)n2)ccc1OC1CCOCC1 [Compound 1, 5-(4-((4-(4-(oxetan-3-yl)piperazin-1-yl)phenyl)amino)-1,3,5-triazin-2-yl)-2-((tetrahydro-2H-pyran-4-yl)oxy)benzonitrile]
inhibition (off-target kinases [1]; read-out: % Inhibition 1): 0% | inhibition (off-target kinases [1]; read-out: % Inhibition 2): 1% | inhibition (off-target kinases [1]; read-out: % Inhibition Avg): 0% | inhibition (off-target kinases [2]; read-out: % Inhibition 1): 17% | inhibition (off-target kinases [2]; read-out: % Inhibition 2): 10% | inhibition (off-target kinases [2]; read-out: % Inhibition Avg): 14% | inhibition (off-target kinases [3]; read-out: % Inhibition 1): 96% | inhibition (off-target kinases [3]; read-out: % Inhibition 2): 95% | inhibition (off-target kinases [3]; read-out: % Inhibition Avg): 96%
